Test results: the NIST ThermoML archive (doi:10.1021/acs.jced.6b00455)
Numbers after ± are expanded uncertainties.

Assay: mn = molality of the nth substance listed, in mol/kg
Conditions: 101 kPa, Liquid, Alternating current cell with electrodes

C[N+](C)(C)CCO.O=C([O-])C(F)(F)C(F)(F)C(F)(F)C(F)(F)C(F)(F)C(F)(F)C(F)(F)F [(2-hydroxyethyl)trimethylammonium perfluorooctanoate] + O
Conditions | electrical conductivity [S/m]
293.15 K, m1 = 7.6e-05 | 0.0005 ± 0.0001
293.15 K, m1 = 0.000243 | 0.0015 ± 0.0001
293.15 K, m1 = 0.000338 | 0.0021 ± 0.0001
293.15 K, m1 = 0.000489 | 0.0031 ± 0.0002
293.15 K, m1 = 0.000626 | 0.0039 ± 0.0002
293.15 K, m1 = 0.000747 | 0.0046 ± 0.0003
293.15 K, m1 = 0.000847 | 0.0053 ± 0.0003
293.15 K, m1 = 0.000968 | 0.0061 ± 0.0004
293.15 K, m1 = 0.001108 | 0.007 ± 0.0004
293.15 K, m1 = 0.001301 | 0.008 ± 0.0005
293.15 K, m1 = 0.001463 | 0.0091 ± 0.0005
293.15 K, m1 = 0.001591 | 0.0098 ± 0.0006
293.15 K, m1 = 0.001689 | 0.0106 ± 0.0006
293.15 K, m1 = 0.00186 | 0.0114 ± 0.0007
293.15 K, m1 = 0.001996 | 0.0123 ± 0.0007
293.15 K, m1 = 0.002117 | 0.0129 ± 0.0008
293.15 K, m1 = 0.00224 | 0.0138 ± 0.0008
293.15 K, m1 = 0.002376 | 0.0145 ± 0.0009
293.15 K, m1 = 0.002497 | 0.0153 ± 0.0009
293.15 K, m1 = 0.00262 | 0.016 ± 0.001
293.15 K, m1 = 0.002737 | 0.0167 ± 0.001
293.15 K, m1 = 0.002945 | 0.018 ± 0.0011
293.15 K, m1 = 0.00309 | 0.0188 ± 0.0011
293.15 K, m1 = 0.003212 | 0.0196 ± 0.0012
293.15 K, m1 = 0.003363 | 0.0202 ± 0.0012
293.15 K, m1 = 0.003476 | 0.0208 ± 0.0012
293.15 K, m1 = 0.003596 | 0.0216 ± 0.0013
293.15 K, m1 = 0.003714 | 0.0222 ± 0.0013
298.15 K, m1 = 6.2e-05 | 0.0004 ± 0.0001
298.15 K, m1 = 0.000138 | 0.0009 ± 0.0001
298.15 K, m1 = 0.00019 | 0.0013 ± 0.0001
298.15 K, m1 = 0.000258 | 0.0018 ± 0.0001
298.15 K, m1 = 0.000317 | 0.0022 ± 0.0001
298.15 K, m1 = 0.000375 | 0.0026 ± 0.0002
298.15 K, m1 = 0.000432 | 0.003 ± 0.0002
298.15 K, m1 = 0.000488 | 0.0034 ± 0.0002
298.15 K, m1 = 0.000547 | 0.0038 ± 0.0002
298.15 K, m1 = 0.000619 | 0.0044 ± 0.0003
298.15 K, m1 = 0.000704 | 0.0049 ± 0.0003
298.15 K, m1 = 0.00077 | 0.0054 ± 0.0003
298.15 K, m1 = 0.000828 | 0.006 ± 0.0004
298.15 K, m1 = 0.00091 | 0.0066 ± 0.0004
298.15 K, m1 = 0.000999 | 0.0072 ± 0.0004
298.15 K, m1 = 0.001085 | 0.0078 ± 0.0005
298.15 K, m1 = 0.001174 | 0.0084 ± 0.0005
298.15 K, m1 = 0.001268 | 0.009 ± 0.0005
298.15 K, m1 = 0.001353 | 0.0096 ± 0.0006
298.15 K, m1 = 0.001452 | 0.0102 ± 0.0006
298.15 K, m1 = 0.001544 | 0.0109 ± 0.0007
298.15 K, m1 = 0.001654 | 0.0115 ± 0.0007
298.15 K, m1 = 0.001755 | 0.0119 ± 0.0007
298.15 K, m1 = 0.00185 | 0.0125 ± 0.0008
298.15 K, m1 = 0.001933 | 0.013 ± 0.0008
298.15 K, m1 = 0.002054 | 0.0138 ± 0.0008
298.15 K, m1 = 0.002177 | 0.0146 ± 0.0009
298.15 K, m1 = 0.002284 | 0.0152 ± 0.0009
298.15 K, m1 = 0.00241 | 0.016 ± 0.001
298.15 K, m1 = 0.002525 | 0.0167 ± 0.001
298.15 K, m1 = 0.002643 | 0.0174 ± 0.001
298.15 K, m1 = 0.002738 | 0.018 ± 0.0011
298.15 K, m1 = 0.002963 | 0.0194 ± 0.0012
298.15 K, m1 = 0.003158 | 0.0205 ± 0.0012
298.15 K, m1 = 0.003285 | 0.0213 ± 0.0013
298.15 K, m1 = 0.003418 | 0.0221 ± 0.0013
298.15 K, m1 = 0.003542 | 0.0228 ± 0.0014
298.15 K, m1 = 0.00364 | 0.0234 ± 0.0014
298.15 K, m1 = 0.003768 | 0.0242 ± 0.0015
298.15 K, m1 = 0.003952 | 0.0253 ± 0.0015
298.15 K, m1 = 0.004493 | 0.0287 ± 0.0017
298.15 K, m1 = 0.005611 | 0.0355 ± 0.0021
298.15 K, m1 = 0.006271 | 0.0391 ± 0.0023
298.15 K, m1 = 0.006873 | 0.0424 ± 0.0025
298.15 K, m1 = 0.007507 | 0.0463 ± 0.0028
303.15 K, m1 = 6.9e-05 | 0.0006 ± 0.0001
303.15 K, m1 = 0.000173 | 0.0013 ± 0.0001
303.15 K, m1 = 0.000265 | 0.002 ± 0.0001
303.15 K, m1 = 0.000396 | 0.0031 ± 0.0002
303.15 K, m1 = 0.000504 | 0.0039 ± 0.0002
303.15 K, m1 = 0.000614 | 0.0048 ± 0.0003
303.15 K, m1 = 0.000711 | 0.0055 ± 0.0003
303.15 K, m1 = 0.000794 | 0.0061 ± 0.0004
303.15 K, m1 = 0.000992 | 0.0077 ± 0.0005
303.15 K, m1 = 0.001091 | 0.0084 ± 0.0005
303.15 K, m1 = 0.001177 | 0.0091 ± 0.0005
303.15 K, m1 = 0.00129 | 0.0099 ± 0.0006
303.15 K, m1 = 0.001381 | 0.0105 ± 0.0006
303.15 K, m1 = 0.001497 | 0.0113 ± 0.0007
303.15 K, m1 = 0.001589 | 0.012 ± 0.0007
303.15 K, m1 = 0.001698 | 0.0128 ± 0.0008
303.15 K, m1 = 0.002339 | 0.0176 ± 0.0011
303.15 K, m1 = 0.002615 | 0.0196 ± 0.0012
303.15 K, m1 = 0.002737 | 0.0204 ± 0.0012
303.15 K, m1 = 0.002834 | 0.021 ± 0.0013
303.15 K, m1 = 0.002921 | 0.0216 ± 0.0013
303.15 K, m1 = 0.003011 | 0.0222 ± 0.0013
303.15 K, m1 = 0.003103 | 0.0229 ± 0.0014
303.15 K, m1 = 0.003204 | 0.0237 ± 0.0014
303.15 K, m1 = 0.003323 | 0.0244 ± 0.0015
303.15 K, m1 = 0.003408 | 0.025 ± 0.0015
